Literature values as cited in US20240082222A1, “4-CHLORO-N-[2-[(4-CHLOROPHENYL)METHYL]-3-OXO-1,2,4-THIADIAZOL-5-YL]BENZAMIDE FOR USE IN MEDICINE” (Betagenon AB, priority 2021, published 2024).

Assays:
[1] = mice, lumbar disc puncture and postoperative pain models; cited from earlier work
[2] = 1000 mg/day in suspension, day 28, patients with type-2 diabetes; cited from earlier work

SMILES | treatment of pain (mechanical hypersensitivity) [1] | mean Cmax [2]
CN(C)C(=N)N=C(N)N [metformin, reference compound] | effective at treating pain | 
O=C(Nc1nc(=O)n(Cc2ccc(Cl)cc2)s1)c1ccc(Cl)cc1 [compound of formula I, 4-chloro-N-[2-[(4-chlorophenyl)methyl]-3-oxo-1,2,4-thiadiazol-5-yl]benzamide] | effective at treating pain | 55 µg/mL
